Data published in patent US9840481B2, “Allosteric modulators of nicotinic acetylcholine receptors” (MERCK SHARP & DOHME CORP., priority 2016, dated 2017).
Where two headings read alike, the source gives them in different places.

Biological target: T1, human α7 nAChR stably expressed in a HEK cell line (with human RIC-3) (Homo sapiens, UniProt P36544)
T1 construct: PrecisION hnAChR α7/RIC-3
Assay: Automated patch-clamp electrophysiology functional assay (Assay A), IonFlux HT, whole-cell population patch
Assay type: cell-based
Protocol: The α7 nAChR positive allosteric modulator (PAM) activity of the present compounds may be tested using assays known in the art. The α7 nAChR PAMs described herein have activities in an automated patch-clamp electrophysiology functional assay as described in the examples. The assay was performed using the IonFlux HT in a whole-cell, population patch configuration. See Golden et al. Assay Drug Dev. Technol. (2011) 9:608-619. The compounds were assessed for their ability to modulate the function of the human α7 nAChR stably expressed in a HEK cell line both in the presence, and in the absence of the natural α7 agonist acetylcholine. By performing a series of such measurements at different concentrations, the effective concentration of the α7 nAChR PAMs (EC50) was determined. See Spencer et al. Assay Drug Dev. Technol. (2012) 10:313-324.
Direct activation of α7 (agonism), and potentiation of 5 acetylcholine-evoked α7 currents was determined as follows:
Automated Patch-Clamp Electrophysiology Functional Assay (Assay A)
Automated patch-clamp electrophysiology was performed using the IonFlux HT (Fluxion Biosciences Inc., San Francisco, Calif.) in the whole-cell, population patch configuration. Test compounds were assessed for their ability to modulate the function of the α7 nicotinic acetylcholine receptor both in the presence, and in the absence of the natural α7 agonist acetylcholine. A HEK cell line stably expressing both human RIC-3 and human α7 (PrecisION hnAChR α7/RIC-3, Eurofins Pharma, St. Charles, Mo.) was cultured in 175 cm^2 triple-layer tissue culture flasks to no more than 90% confluency in DMEM/F-12 growth media supplemented with 10% heat-inactivated fetal bovine serum, 1% non-essential amino acids, 0.625 μg/mL Puromycin, and 400 μg/mL Geneticin. Immediately prior to assay, cells were detached by first aspirating growth media, rinsing with Dulbecco's phosphate buffered saline, and then adding 10 mL of Accutase (Innovative Cell Technologies, San Diego, Calif.) to the flask and then incubating at 37° C. for 5 minutes. Detached cells were then recovered by the addition of 40 mL of CHO-serum-free media supplemented with 25 mM HEPES, and rocked gently in a 50 mL conical tube for 20 minutes prior to patch-clamp assay. After recovery, cells were pelleted by centrifugation at 1,000 RPM for 1 minute in a compact bench top centrifuge; recovery media was aspirated and cells were resuspended in external recording solution (150 mM NaCl, 5 mM KCl, 2 mM CaCl2, 1 mM MgCl2, 10 mM HEPES, 12 mM dextrose) to a density of 5.0×10^6 cells/mL. The cell suspension was added to the cell inlet wells on an IonFlux HT population patch plate which had previously been rinsed and primed with deionized H2O. Test compounds were serially diluted in DMSO and then resuspended to the final test concentration in external recording solution, with, or without […] acetylcholine added to the external recording solution; test compounds were then transferred to the IonFlux HT population patch plate. Internal recording solution (110 mM TrisPO4, 28 mM TrisBase, 0.1 mM CaCl2, 2 mM MgCl2, 11 mM EGTA, 4 mM MgATP) was added to the internal recording solution inlet wells on the IonFlux HT patch plate previously loaded with cells and test compounds, and the plate loaded into the IonFlux HT instrument. A protocol was executed on the IonFlux HT to trap the cells, break into the cells, and establish the whole-cell recording configuration; cells were voltage-clamped at a holding potential of −60 mV for the duration of the experiment, all experiments were conducted at room temperature, and the IonFlux HT injection pressure was 8 psi for solution applications. Upon establishing the whole-cell configuration, external recording solution was perfused into the recording chambers for 120 seconds and then 40 μM acetylcholine was applied for 1 second and immediately washed off with external recording solution for 60 seconds. […]

[1] = automated patch-clamp electrophysiology functional assay (Assay A), potency class by EC50, read-out: α7 nAChR Potency
[2] = electrophysiology EC50, HEK cells expressing human α7/RIC-3, 40 μM acetylcholine, holding potential −60 mV, room temperature, read-out: α7 nAChR EC50

T1 sequence (P36544 23-502): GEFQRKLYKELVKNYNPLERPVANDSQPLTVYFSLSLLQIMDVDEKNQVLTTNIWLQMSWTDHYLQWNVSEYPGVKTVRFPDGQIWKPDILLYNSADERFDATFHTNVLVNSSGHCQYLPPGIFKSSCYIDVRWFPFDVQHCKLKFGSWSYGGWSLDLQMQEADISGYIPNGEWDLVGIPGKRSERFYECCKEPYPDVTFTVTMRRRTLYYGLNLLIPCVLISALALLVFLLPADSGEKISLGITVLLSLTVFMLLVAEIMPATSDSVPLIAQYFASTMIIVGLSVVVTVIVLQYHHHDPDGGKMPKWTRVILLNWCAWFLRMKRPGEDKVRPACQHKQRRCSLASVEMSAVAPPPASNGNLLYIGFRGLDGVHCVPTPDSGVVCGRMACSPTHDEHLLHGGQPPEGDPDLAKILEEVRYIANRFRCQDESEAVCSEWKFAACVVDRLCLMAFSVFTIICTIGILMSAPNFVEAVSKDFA

EC50 [1] | EC50 [2] | Compound
500 to 5000 nM | 740 nM | NS(=O)(=O)c1ccc([C@@H]2[C@@H](c3nsc(-c4ccccc4)n3)C2(F)F)cc1 [Example L13]
500 to 5000 nM | – | CC1(C)[C@H](c2ccc(S(N)(=O)=O)cc2)[C@H]1c1nc(-c2cc(F)ccc2F)co1 [Example J3]
500 to 5000 nM | – | CC1(C)[C@@H](c2ccc(S(N)(=O)=O)cc2)[C@@H]1c1noc(C(O)C(F)(F)F)n1 (stereo partly shown) [Example I28]
100 to 500 nM | 210 nM | NS(=O)(=O)c1ccc(C2CC2c2nc(-c3cccc(F)c3)ns2)cc1 (single isomer, unassigned) [Example M4]
100 to 500 nM | – | NS(=O)(=O)c1ccc(C2C(c3nc(C4CCCC4)no3)C2(Cl)Cl)cc1 (racemic) [Example M5]
500 to 5000 nM | – | CCOc1nc([C@@H]2[C@@H](c3ccc(S(N)(=O)=O)cc3)C2(C)C)ns1 [Example L9]
100 to 500 nM | 130 nM | CC1(C)[C@@H](c2ccc(S(N)(=O)=O)cc2)[C@@H]1c1nc(C2CCCC2)co1 [Example K17]
500 to 5000 nM | 540 nM | CCc1coc([C@H]2[C@H](c3ccc(S(N)(=O)=O)cc3)C2(C)C)n1 [Example K8]
500 to 5000 nM | – | CC1(C)[C@@H](c2ccc(S(N)(=O)=O)cc2)[C@@H]1c1cnc(-c2ccccc2)o1 [Example L1]
500 to 5000 nM | – | NS(=O)(=O)c1ccc([C@H]2C[C@@H]2c2cnc(-c3ccccc3)s2)cc1 [Example L22]
500 to 5000 nM | 770 nM | CC1(C)[C@H](c2ccc(S(N)(=O)=O)cc2)[C@H]1c1cn(-c2cccc(F)c2)nn1 [Example L5]
100 to 500 nM | – | CC1(C)[C@@H](c2ccc(S(N)(=O)=O)cc2)[C@@H]1c1noc(Cc2ccc(F)cc2F)n1 [Example I1]

Continued, compound first:

Compound | EC50 [1] | EC50 [2]
CC1(C)[C@@H](c2ccc(S(C)(=O)=O)cc2)[C@@H]1c1nc(-c2ccccc2)no1 (relative stereo) [Example 33] | 500 to 5000 nM | 1100 nM
CC1(C)[C@@H](c2ccc(S(N)(=O)=O)cc2)[C@@H]1c1nc(-c2ccc(F)cc2F)no1 [Example C12] | 500 to 5000 nM | –
CC1(C)[C@@H](c2ccc(S(N)(=O)=O)cc2)[C@@H]1c1nnc(-c2cccc(C(F)(F)F)c2)o1 [Example G2] | 500 to 5000 nM | –
CC(C)c1nnc([C@H]2[C@H](c3ccc(S(N)(=O)=O)cc3)C2(C)C)o1 [Example G9] | 500 to 5000 nM | –
CC1(C)[C@@H](c2ccc(S(N)(=O)=O)cc2)[C@@H]1c1nc(-c2cnccc2C(F)(F)F)no1 [Example D2] | 500 to 5000 nM | –
NS(=O)(=O)c1ccc([C@@H]2C[C@H]2c2cnc(C3CCCCC3)o2)cc1 [Example 28, 4-[(1R,2R)-2-(2-Cyclohexyl-1,3-oxazol-5-yl)cyclopropyl]benzenesulfonamide] | 100 to 500 nM | 460 nM
CC1(C)[C@@H](c2ccc(S(N)(=O)=O)cc2)[C@@H]1c1nc(C2(C(F)(F)F)CC2)no1 [Example D33] | 100 to 500 nM | 210 nM
CC1(C)[C@@H](c2ccc(S(N)(=O)=O)cc2)[C@@H]1c1noc(-c2cc(F)cc(F)c2F)n1 [Example H10] | 100 to 500 nM | 240 nM
CC1(C)[C@@H](c2ccc(S(N)(=O)=O)cc2)[C@@H]1c1nc(CC2CC2)no1 [Example D27] | 100 to 500 nM | 200 nM
CC1(C)[C@H](c2ccc(S(N)(=O)=O)cc2)[C@H]1c1nc(CC2CC2)no1 [Example B10] | 500 to 5000 nM | 3000 nM
CC1(C)[C@H](c2ccc(S(N)(=O)=O)cc2)[C@H]1c1nc(C2CCCO2)no1 (stereo partly shown) [Example B12] | 5000 to 50000 nM | –
NS(=O)(=O)c1ccc([C@@H]2C[C@H]2c2noc(-c3cccc(F)c3)n2)cc1 [Example H15] | 100 to 500 nM | 190 nM
Cc1ncccc1-c1noc([C@@H]2C[C@H]2c2ccc(S(N)(=O)=O)cc2)n1 [Example D16] | 500 to 5000 nM | 1300 nM
CC1(C)[C@H](c2ccc(S(N)(=O)=O)cc2)[C@H]1c1nc(-c2ccccc2F)no1 [Example A12] | 500 to 5000 nM | –
CC1(C)[C@H](c2ccc(S(N)(=O)=O)cc2)[C@H]1c1nnc(-c2c(F)cccc2C(F)(F)F)o1 [Example F3] | 500 to 5000 nM | 4700 nM
NS(=O)(=O)c1ccc([C@@H]2C[C@H]2c2cnc(C3CCCC3)o2)cc1 [Example L21] | 500 to 5000 nM | –
CC1(C)[C@H](c2ccc(S(N)(=O)=O)cc2)[C@H]1c1nnc(-c2cccnc2C2CC2)o1 [Example F6] | 500 to 5000 nM | –
NS(=O)(=O)c1ccc([C@@H]2C[C@H]2c2nc(-c3cc(F)ccc3F)no2)cc1 [Example C16] | 100 to 500 nM | 160 nM
CC1(C)[C@@H](c2ccc(S(N)(=O)=O)cc2)[C@@H]1c1nc(CC(F)(F)F)no1 [Example D14] | 500 to 5000 nM | –

Compound | EC50 [1] | EC50 [2]
CC(C)(C)c1noc([C@@H]2[C@@H](c3ccc(S(N)(=O)=O)cc3)C2(F)F)n1 [Example B17] | 500 to 5000 nM | 850 nM
CC(C)c1noc([C@@H]2[C@@H](c3ccc(S(N)(=O)=O)cc3)C2(C)C)n1 [Example B1] | 500 to 5000 nM | 1500 nM
CC1(C)[C@H](c2ccc(S(N)(=O)=O)cc2)[C@H]1c1nc(C2CCCC2)no1 [Example B9] | 500 to 5000 nM | 1000 nM
CC(=O)N1CCC(c2noc([C@@H]3[C@@H](c4ccc(S(N)(=O)=O)cc4)C3(C)C)n2)CC1 [Example B16] | 500 to 5000 nM | 2200 nM
CC1(C)[C@@H](c2ccc(S(N)(=O)=O)cc2)[C@@H]1c1nnc(-c2c(F)cccc2F)o1 [Example G5] | 500 to 5000 nM | 1300 nM
NS(=O)(=O)c1ccc([C@@H]2C[C@H]2c2cnc(-c3ccccc3)s2)cc1 [Example 27, 4-[(1R,2R)-2-(2-Phenyl-1,3-thiazol-5-yl)cyclopropyl]benzenesulfonamide] | 500 to 5000 nM | 620 nM
CC1(C)[C@@H](c2ccc(S(N)(=O)=O)cc2)[C@@H]1c1nc(C2CCCC2)no1 [Example D20] | ≤ 100 nM | 69 nM
CC1(C)[C@@H](c2ccc(S(N)(=O)=O)cc2)[C@@H]1c1noc(-c2c(F)cc(F)cc2F)n1 [Example H3] | 100 to 500 nM | 130 nM
NS(=O)(=O)c1ccc([C@@H]2C[C@H]2c2nc(-c3ccc(F)cc3C(F)(F)F)no2)cc1 [Example C7] | 500 to 5000 nM | 960 nM
NS(=O)(=O)c1ccc([C@H]2[C@H](c3nc(-c4ccccc4)no3)C2(F)F)cc1 [Example C21] | ≤ 100 nM | 83 nM
CC1(C)[C@@H](c2ccc(S(N)(=O)=O)cc2)[C@@H]1c1noc(-c2ccc(F)c(OC(F)(F)F)c2)n1 [Example H4] | 500 to 5000 nM | –
NS(=O)(=O)c1ccc([C@@H]2C[C@H]2c2nc(-c3cnccc3C(F)(F)F)no2)cc1 [Example D22] | 500 to 5000 nM | –
CC1(C)[C@H](c2ccc(S(N)(=O)=O)cc2)[C@H]1c1nc(-c2ccc(F)cc2F)no1 [Example A7] | 500 to 5000 nM | 1300 nM
NS(=O)(=O)c1ccc([C@@H]2C[C@H]2c2nc(-c3ccccc3F)no2)cc1 [Example C20] | 100 to 500 nM | –
NS(=O)(=O)c1ccc([C@@H]2C[C@H]2c2nc(C3CC(F)(F)C3)no2)cc1 [Example D19] | 500 to 5000 nM | –
NS(=O)(=O)c1ccc([C@@H]2C[C@H]2c2nc(-c3c(F)cccc3F)no2)cc1 [Example C9] | 500 to 5000 nM | –
NS(=O)(=O)c1ccc([C@H]2C[C@@H]2c2nc(C3CCCCC3)no2)cc1 [Example B4] | 500 to 5000 nM | –
Cc1noc([C@H]2[C@H](c3ccc(S(N)(=O)=O)cc3)C2(C)C)n1 [Example D13] | 5000 to 50000 nM | 6000 nM
